The source of these data is the SangsterLogP compilation.

One may read the logP as a log measure of how a compound divides between an organic and an aqueous phase. On to `C=CCNc1ncc(-c2ccncc2)cc1C#N`, for which the logP was found to be 2.07.
Then `N#Cc1cc(-c2ccncc2)cnc1NCCOCCO`, with 1.62.
The compound `N#Cc1cc(-c2ccncc2)cnc1NCCO` gave a logP of 1.17.
The result for `N#Cc1cc(-c2ccncc2)cnc1Cl` reads 1.74.
The result for `N#Cc1cc(-c2ccncc2)cnc1N1CCCC1` reads 2.95; that for `N#Cc1cc(-c2ccncc2)cnc1NCCCO`, 1.42; that for `CCC(CO)Nc1ncc(-c2ccncc2)cc1C#N` (stereo not given), 1.04.
`N#Cc1cc(-c2ccncc2)cnc1NCc1ccccc1` showed a lipophilicity (logP) of 3.45.
The result for `CC(O)CNc1ncc(-c2ccncc2)cc1C#N` (stereo not given) reads 0.79; that for `CCNc1ncc(-c2ccncc2)cc1C#N`, 2.33; that for `COCCCNc1ncc(-c2ccncc2)cc1C#N`, 2.03.
The result for `COC(CNc1ncc(-c2ccncc2)cc1C#N)OC` reads 2.28; that for `CN(C)c1ncc(-c2ccncc2)cc1C#N`, 2.13.
Then `N#Cc1cc(-c2ccncc2)cnc1N(CCO)CCO`, with 1.14; and `N#Cc1cc(-c2ccncc2)cnc1NCCCCO`, with 1.93.
